Assay results from patent US20100130608A1, “COMPOSITIONS AND METHODS FOR REDUCING TRIGLYCERIDE LEVELS” (Martek Biosciences Corporation, priority 2008, published 2010).
Marks after values point to notes of the source that are not given here.

Key:
male Wister rats [1] = assay: Effect on triglyceride levels in high fructose diet rats; assay type: in vivo, rat; details: for Triglycerides, mean: oral gavage, mean ± SD; for Serum triglycerides, LSMEAN: least squares mean
Description: The effect of the DHA ethyl ester (DHA-EE) produced according to the method of Example 2 on triglyceride levels was investigated using male Wister rats. The DHA-EE used in this example contained DHA at about 93.6% (w/w) of the total fatty acid content of the dosage form. The effect of purified DHA-EE was compared to two different DHA-containing products: DHASCO-T® (Martek Bioscience Corporation, Columbia, Md.) and Lovaza® (Reliant Pharmaceuticals, Inc., Durham, N.C.). DHASCO-T® comprises approximately 45% DHA and 55% other fatty acids (with substantially no EPA). Lovaza® comprises approximately 41.7% DHA ethyl ester, 51.7% EPA ethyl ester, and 6.4% other fatty acids. The vehicle control comprised corn oil. 84 Wistar rats were randomized into 7 groups of 12 rats each. Each rat was administered orally a high fructose diet for 4-5 weeks to raise triglyceride levels. After 4-5 weeks, rats with a triglyceride level <300 mg/dL were excluded. Then each rat was administered either (a) a vehicle control, (b) DHA ethyl ester (0.6 g/kg/day, 1.3 g/kg/day, 2.5 g/kg/day, or 5.0 g/kg/day), (c) DHASCO-T (5.0 g/kg/day), or (d) Lovaza (5.0 g/kg/day) for 28 days by oral gavage. Diets were controlled for calories, nutrients and levels of vitamin E. Triglyceride levels of the rats were measured at 14 days and 28 days. Triglyceride values shown are averages for each treatment group, presented as actual mean values.
The triglyceride results presented below in Table 8 are calculated from the same data set as in Table 7. Triglyceride values shown in Table 8 are averages for each treatment group, presented as least squares mean values.

[2] = rat, in vivo
Description: The plasma DHA fatty acid area percent and plasma EPA fatty acid area percent were determine in the rats at day 1 and day 29 (post necropsy).

male Wister rats [3] = assay: Effect on total cholesterol levels in rats; assay type: in vivo, rat; details: for Serum cholesterol, LSMEAN: least squares mean; for Serum cholesterol, mean: mean ± SD
Experimental: The effect of the DHA ethyl ester of Example 2 on cholesterol levels was investigated using male Wister rats, and was compared to DHASCO-T® and Lovaza®. The rats were administered either (a) a vehicle control, (b) DHA ethyl ester (0.6 g/kg/day, 1.3 g/kg/day, 2.5 g/kg/day, or 5.0 g/kg/day), (c) DHASCO-T (5.0 g/kg/day), or (d) Lovaza (5.0 g/kg/day) for 28 days. Cholesterol levels, i.e., total cholesterol, of the rats were measured at 14 days and 28 days. Total cholesterol values shown are averages for each treatment group, i.e., actual mean values.
The cholesterol results presented below in Table 10 are calculated from the same data set as in Table 9. Cholesterol level values shown in Table 10 are averages for each treatment group, presented as least squares mean values.

[4] = 14 day, 0.6 g/kg/day fatty acid
[5] = 14 day, 1.3 g/kg/day fatty acid
[6] = 14 day, 2.5 g/kg/day fatty acid
[7] = 14 day, 5.0 g/kg/day fatty acid
[8] = 28 day, 0.6 g/kg/day fatty acid
[9] = 28 day, 1.3 g/kg/day fatty acid
[10] = 28 day, 2.5 g/kg/day fatty acid
[11] = 28 day, 5.0 g/kg/day fatty acid

**Q.** Which “Serum triglycerides % of control, LSMEAN” value (male Wister rats [1]; [4]) does the source give for CC/C=C\C/C=C\C/C=C\C/C=C\C/C=C\C/C=C\CCC(=O)OCC [DHA-EE, ethyl docosahexaenoate] here?
**A.** 65 % of control

**Q.** What about the “Triglycerides % of control, mean” value (male Wister rats [1]; [4]) of the same compound?
**A.** 67 % of control

**Q.** And the “Triglycerides, mean” value (male Wister rats [1]; [4])?
**A.** 176.5 ± 96.4 mg/dL

**Q.** And the “Serum triglycerides, LSMEAN” value (male Wister rats [1]; [4])?
**A.** 168.4† mg/dL

**Q.** And the “Serum triglycerides % of control, LSMEAN” value (male Wister rats [1]; [5])?
**A.** 67 % of control

**Q.** And the “Triglycerides % of control, mean” value (male Wister rats [1]; [5])?
**A.** 66 % of control

**Q.** What about the “Triglycerides, mean” value (male Wister rats [1]; [5]) of the same compound?
**A.** 175.2 ± 50.6 mg/dL

**Q.** And the “Serum triglycerides, LSMEAN” value (male Wister rats [1]; [5])?
**A.** 173.6† mg/dL

**Q.** What about the “Serum triglycerides % of control, LSMEAN” value (male Wister rats [1]; [6]) of the same compound?
**A.** 47 % of control

**Q.** What about the “Triglycerides % of control, mean” value (male Wister rats [1]; [6]) of the same compound?
**A.** 44 % of control

**Q.** What about the “Triglycerides, mean” value (male Wister rats [1]; [6]) of the same compound?
**A.** 115.5 ± 60.9 mg/dL

**Q.** And the “Serum triglycerides, LSMEAN” value (male Wister rats [1]; [6])?
**A.** 120.2† mg/dL

**Q.** What about the “Serum triglycerides % of control, LSMEAN” value (male Wister rats [1]; [7]) of the same compound?
**A.** 43 % of control

**Q.** What about the “Triglycerides % of control, mean” value (male Wister rats [1]; [7]) of the same compound?
**A.** 37 % of control

**Q.** And the “Triglycerides, mean” value (male Wister rats [1]; [7])?
**A.** 97.6 ± 47.8 mg/dL

**Q.** And the “Serum triglycerides, LSMEAN” value (male Wister rats [1]; [7])?
**A.** 110.7† mg/dL

**Q.** And the “Serum triglycerides % of control, LSMEAN” value (male Wister rats [1]; [8])?
**A.** 93 % of control

**Q.** What about the “Triglycerides % of control, mean” value (male Wister rats [1]; [8]) of the same compound?
**A.** 95 % of control

**Q.** And the “Triglycerides, mean” value (male Wister rats [1]; [8])?
**A.** 182.7 ± 86.9 mg/dL

**Q.** What about the “Serum triglycerides, LSMEAN” value (male Wister rats [1]; [8]) of the same compound?
**A.** 174.5 mg/dL

**Q.** What about the “Serum triglycerides % of control, LSMEAN” value (male Wister rats [1]; [9]) of the same compound?
**A.** 60 % of control

**Q.** What about the “Triglycerides % of control, mean” value (male Wister rats [1]; [9]) of the same compound?
**A.** 60 % of control

**Q.** And the “Triglycerides, mean” value (male Wister rats [1]; [9])?
**A.** 114.7 ± 37.2 mg/dL

**Q.** And the “Serum triglycerides, LSMEAN” value (male Wister rats [1]; [9])?
**A.** 113.1† mg/dL

**Q.** What about the “Serum triglycerides % of control, LSMEAN” value (male Wister rats [1]; [10]) of the same compound?
**A.** 60 % of control

**Q.** And the “Triglycerides % of control, mean” value (male Wister rats [1]; [10])?
**A.** 56 % of control

**Q.** And the “Triglycerides, mean” value (male Wister rats [1]; [10])?
**A.** 107.9 ± 58.4 mg/dL

**Q.** And the “Serum triglycerides, LSMEAN” value (male Wister rats [1]; [10])?
**A.** 112.6† mg/dL

**Q.** And the “Serum triglycerides % of control, LSMEAN” value (male Wister rats [1]; [11])?
**A.** 47 % of control

**Q.** What about the “Triglycerides % of control, mean” value (male Wister rats [1]; [11]) of the same compound?
**A.** 41 % of control

**Q.** And the “Triglycerides, mean” value (male Wister rats [1]; [11])?
**A.** 78.9 ± 46.5 mg/dL

**Q.** And the “Serum triglycerides, LSMEAN” value (male Wister rats [1]; [11])?
**A.** 87.6† mg/dL

**Q.** And the “Effect on triglyceride levels (in words)” value (male Wister rats [1]; at 14 days, even at the lowest dosage level (0.6 g/kg/day))?
**A.** reduces triglyceride levels

**Q.** And the “Triglyceride levels versus control (in words)” value (male Wister rats [1]; day 28, 0.6 g DHA-EE)?
**A.** not significantly lower than control

**Q.** What about the “Plasma DHA fatty acid area percent (in words)” value [2] of the same compound?
**A.** correlates with increasing dosing of DHA

**Q.** What about the “Plasma EPA fatty acid area percent (in words)” value [2] of the same compound?
**A.** does not increase in rats administered DHA-EE or DHASCO® to the same extent that it is increased in Lovaza®

**Q.** And the “Serum cholesterol % of control, LSMEAN” value (male Wister rats [3]; [4])?
**A.** 80 % of control

**Q.** What about the “Serum cholesterol % of control, mean” value (male Wister rats [3]; [4]) of the same compound?
**A.** 79 % of control

**Q.** What about the “Serum cholesterol, LSMEAN” value (male Wister rats [3]; [4]) of the same compound?
**A.** 72.4 mg/dL

**Q.** And the “Serum cholesterol, mean” value (male Wister rats [3]; [4])?
**A.** 72.2 ± 17.7 mg/dL

**Q.** And the “Serum cholesterol % of control, LSMEAN” value (male Wister rats [3]; [5])?
**A.** 82 % of control

**Q.** And the “Serum cholesterol % of control, mean” value (male Wister rats [3]; [5])?
**A.** 82 % of control

**Q.** What about the “Serum cholesterol, LSMEAN” value (male Wister rats [3]; [5]) of the same compound?
**A.** 74.6 mg/dL

**Q.** What about the “Serum cholesterol, mean” value (male Wister rats [3]; [5]) of the same compound?
**A.** 75.0 ± 24.0 mg/dL

**Q.** What about the “Serum cholesterol % of control, LSMEAN” value (male Wister rats [3]; [6]) of the same compound?
**A.** 85 % of control

**Q.** And the “Serum cholesterol % of control, mean” value (male Wister rats [3]; [6])?
**A.** 85 % of control

**Q.** What about the “Serum cholesterol, LSMEAN” value (male Wister rats [3]; [6]) of the same compound?
**A.** 77.4 mg/dL

**Q.** What about the “Serum cholesterol, mean” value (male Wister rats [3]; [6]) of the same compound?
**A.** 77.6 ± 23.1 mg/dL

**Q.** And the “Serum cholesterol % of control, LSMEAN” value (male Wister rats [3]; [7])?
**A.** 75 % of control

**Q.** And the “Serum cholesterol % of control, mean” value (male Wister rats [3]; [7])?
**A.** 74 % of control

**Q.** And the “Serum cholesterol, LSMEAN” value (male Wister rats [3]; [7])?
**A.** 67.8 mg/dL

**Q.** And the “Serum cholesterol, mean” value (male Wister rats [3]; [7])?
**A.** 67.1 ± 17.9 mg/dL

**Q.** What about the “Serum cholesterol % of control, LSMEAN” value (male Wister rats [3]; [8]) of the same compound?
**A.** 80 % of control

**Q.** And the “Serum cholesterol % of control, mean” value (male Wister rats [3]; [8])?
**A.** 80 % of control

**Q.** What about the “Serum cholesterol, LSMEAN” value (male Wister rats [3]; [8]) of the same compound?
**A.** 80.6 mg/dL

**Q.** And the “Serum cholesterol, mean” value (male Wister rats [3]; [8])?
**A.** 80.3 ± 21.8 mg/dL

**Q.** And the “Serum cholesterol % of control, LSMEAN” value (male Wister rats [3]; [9])?
**A.** 62 % of control

**Q.** What about the “Serum cholesterol % of control, mean” value (male Wister rats [3]; [9]) of the same compound?
**A.** 62 % of control

**Q.** And the “Serum cholesterol, LSMEAN” value (male Wister rats [3]; [9])?
**A.** 61.6† mg/dL

**Q.** And the “Serum cholesterol, mean” value (male Wister rats [3]; [9])?
**A.** 62.0 ± 16.0 mg/dL

**Q.** And the “Serum cholesterol % of control, LSMEAN” value (male Wister rats [3]; [10])?
**A.** 72 % of control

**Q.** What about the “Serum cholesterol % of control, mean” value (male Wister rats [3]; [10]) of the same compound?
**A.** 72 % of control

**Q.** And the “Serum cholesterol, LSMEAN” value (male Wister rats [3]; [10])?
**A.** 71.3† mg/dL

**Q.** What about the “Serum cholesterol, mean” value (male Wister rats [3]; [10]) of the same compound?
**A.** 71.5 ± 17.8 mg/dL

**Q.** And the “Serum cholesterol % of control, LSMEAN” value (male Wister rats [3]; [11])?
**A.** 60 % of control

**Q.** What about the “Serum cholesterol % of control, mean” value (male Wister rats [3]; [11]) of the same compound?
**A.** 60 % of control

**Q.** And the “Serum cholesterol, LSMEAN” value (male Wister rats [3]; [11])?
**A.** 60.9† mg/dL

**Q.** And the “Serum cholesterol, mean” value (male Wister rats [3]; [11])?
**A.** 60.2 ± 19.3 mg/dL

**Q.** And the “Effect on cholesterol levels (in words)” value (male Wister rats [3]; by 14 days, even at the lowest dosage level)?
**A.** reduces cholesterol levels
